Experimental data: the supplement of paper PMC10307832

Legend:
Experiment in all cases: relative viability (nuclei count vs DMSO), 5 days (fraction); higher = more cells survive
BX 795 + Vorinostat = compound: O=C(NCCCNc1nc(Nc2cccc(NC(=O)N3CCCC3)c2)ncc1I)c1cccs1 [BX 795] + O=C(CCCCCCC(=O)Nc1ccccc1)NO [Vorinostat] (partner 1 µM)
Summary of the method: (§1)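 Dosing by pin tool came one day after lung cancer cell lines were seeded in 1536-well plates, using either one drug or a fixed anchor-drug dose plus five library-drug doses (not always all listed) in √10 steps. After 5 days, nuclei were counted on 4× images. Relative viability is treated-well nuclei count divided by vehicle-well nuclei count, and values are medians of duplicate plates.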

BX 795 + Lapatinib = compound: O=C(NCCCNc1nc(Nc2cccc(NC(=O)N3CCCC3)c2)ncc1I)c1cccs1 [BX 795] + CS(=O)(=O)CCNCc1ccc(-c2ccc3ncnc(Nc4ccc(OCc5cccc(F)c5)c(Cl)c4)c3c2)o1 [Lapatinib] (partner 2 µM)
Summary of the method: as §1

BX 795 + Trametinib = compound: O=C(NCCCNc1nc(Nc2cccc(NC(=O)N3CCCC3)c2)ncc1I)c1cccs1 [BX 795] + CC(=O)Nc1cccc(-n2c(=O)n(C3CC3)c(=O)c3c(Nc4ccc(I)cc4F)n(C)c(=O)c(C)c32)c1 [Trametinib] (partner 0.02 µM)
Summary of the method: as §1

BX 795 + Foretinib = compound: O=C(NCCCNc1nc(Nc2cccc(NC(=O)N3CCCC3)c2)ncc1I)c1cccs1 [BX 795] + COc1cc2c(Oc3ccc(NC(=O)C4(C(=O)Nc5ccc(F)cc5)CC4)cc3F)ccnc2cc1OCCCN1CCOCC1 [Foretinib] (partner 0.25 µM)
Summary of the method: as §1

BX 795 + Dasatinib = compound: O=C(NCCCNc1nc(Nc2cccc(NC(=O)N3CCCC3)c2)ncc1I)c1cccs1 [BX 795] + Cc1nc(Nc2ncc(C(=O)Nc3c(C)cccc3Cl)s2)cc(N2CCN(CCO)CC2)n1 [Dasatinib] (partner 0.075 µM)
Summary of the method: as §1

Cell Line | relative viability (BX 795 + Vorinostat; first compound 0.04 µM) | relative viability (BX 795 + Vorinostat; first compound 0.1265 µM) | relative viability (BX 795 + Vorinostat; first compound 0.4 µM) | relative viability (BX 795 + Vorinostat; first compound 1.265 µM) | relative viability (BX 795 + Lapatinib; first compound 0.04 µM) | relative viability (BX 795 + Lapatinib; first compound 0.1265 µM) | relative viability (BX 795 + Lapatinib; first compound 0.4 µM) | relative viability (BX 795 + Lapatinib; first compound 1.265 µM) | relative viability (BX 795 + Trametinib; first compound 0.04 µM) | relative viability (BX 795 + Trametinib; first compound 0.1265 µM) | relative viability (BX 795 + Trametinib; first compound 0.4 µM) | relative viability (BX 795 + Trametinib; first compound 1.265 µM) | relative viability (BX 795 + Foretinib; first compound 0.04 µM) | relative viability (BX 795 + Foretinib; first compound 0.1265 µM) | relative viability (BX 795 + Foretinib; first compound 0.4 µM) | relative viability (BX 795 + Foretinib; first compound 1.265 µM) | relative viability (BX 795 + Dasatinib; first compound 0.04 µM) | relative viability (BX 795 + Dasatinib; first compound 0.1265 µM) | relative viability (BX 795 + Dasatinib; first compound 0.4 µM) | relative viability (BX 795 + Dasatinib; first compound 1.265 µM)
NCI-H2405 | 1.01 | 0.809 | 0.951 | 0.821 | 1.21 | 1 | 0.792 | 0.733 | 0.557 | 0.556 | 0.44 | 0.534 | 1.08 | 1.06 | 1.02 | 0.935 | 0.185 | 0.193 | 0.191 | 0.187
NCI-H3122 | 0.715 | 1.03 | 1.11 | 0.679 | 1.04 | 1 | 1.09 | 1.05 | 0.216 | 0.312 | 0.248 | 0.26 | 1.01 | 1.04 | 1 | 0.992 | 0.791 | 1 | 0.8 | 0.852
PC-3 [JPC-3] | 0.766 |  | 0.929 | 0.809 | 0.451 | 0.449 | 0.447 | 0.453 | 0.723 |  | 0.631 | 0.729 | 1.03 | 1.03 | 1.03 | 0.949 | 1.02 | 1.04 | 0.979 | 0.975
PC-14 | 0.819 | 0.778 | 0.424 | 0.433 | 0.284 | 0.35 | 0.271 | 0.203 | 0.754 | 0.751 | 0.815 | 0.325 | 0.861 | 1.01 | 0.992 | 0.704 | 0.278 | 0.249 | 0.228 | 0.177
RERF-LC-KJ |  | 0.667 | 0.59 | 0.541 | 0.865 | 0.764 | 0.886 | 0.792 |  | 0.962 | 0.878 | 0.788 | 0.907 | 0.851 | 0.889 | 0.888 | 0.873 | 0.899 | 0.707 | 0.648
SK-LU-1 | 0.674 | 0.764 | 0.595 | 0.593 | 0.883 | 1.1 | 0.801 | 0.469 | 0.473 | 0.674 | 0.396 | 0.469 | 0.762 | 0.902 |  | 0.569 | 0.142 | 0.181 |  | 0.135
SK-MES-1 | 1.1 | 1.11 | 0.545 | 0.748 | 0.509 | 0.45 | 0.458 | 0.385 | 0.574 | 0.46 | 0.519 | 0.396 | 0.917 | 0.971 | 0.823 | 0.674 | 0.416 | 0.453 | 0.164 | 0.223
SW 1573 | 0.862 | 0.875 | 0.558 | 0.276 | 1.13 | 1.18 | 1.26 | 0.781 | 0.725 | 0.642 | 0.753 | 0.232 | 0.916 | 0.844 | 0.971 | 0.777 | 0.512 | 0.456 | 0.452 | 0.161
UMC-11 | 0.422 | 0.308 | 0.354 | 0.348 | 0.949 | 1.05 | 0.757 | 0.333 | 0.685 | 0.665 | 0.547 | 0.531 | 0.85 | 1.06 | 0.805 | 0.168 | 0.412 | 0.407 | 0.291 | 0.169
